Test results reported in US8513245B2, “Pharmaceutical composition for reducing the area of myocardial infarction and its use” (Changzhou Hi-Tech District Multiple Dimension Industry …, priority 2007, dated 2013).
Counter-ions that a name gives are not always drawn.

System: rat model of AMI
Assay: Protective effect in rat model of AMI (coronary ligation, NBT staining, infarcted myocardium weight)
Type: in vivo
Settings: for IMW / IMW/HW (%): SD male rats, 4 h after ligation

SMILES: C[N+](C)(C)C[C@H](O)CC(=O)[O-] [LC, Levocarnitine]
- reduction of IMW/HW (%) in comparison with solvent control group (900 mg/kg levocarnitine): 22.9%
- IMW (LC 100 mg/kg i.p.): 139 ± 25.9 mg
- IMW/HW (%) (LC 100 mg/kg i.p.): 16.8 ± 3.33%
- IMW (LC 300 mg/kg i.p.): 141 ± 23.0 mg
- IMW/HW (%) (LC 300 mg/kg i.p.): 17.2 ± 3.04%
- IMW (LC 600 mg/kg i.p.): 139 ± 24.0 mg
- IMW/HW (%) (LC 600 mg/kg i.p.): 16.8 ± 3.10 %
- IMW (LC 900 mg/kg i.p.): 129 ± 23.8 mg
- IMW/HW (%) (LC 900 mg/kg i.p.): 15.8 ± 3.10 %

SMILES: COc1ccc(CN2CCNCC2)c(OC)c1OC [TMZ, trimetazidine hydrochloride]
- reduction of IMW/HW (%) in comparison with solvent control group (9 mg/kg trimetazidine, control 24.5%): 34.7%
- IMW (TMZ 1 mg/kg i.p.): 177 ± 20.2 mg
- IMW/HW (%) (TMZ 1 mg/kg i.p.): 22.8 ± 3.40%
- IMW (TMZ 3 mg/kg i.p.): 163 ± 20.2 mg
- IMW/HW (%) (TMZ 3 mg/kg i.p.): 21.0 ± 2.60 %
- IMW (TMZ 6 mg/kg i.p.): 132 ± 19.1 mg
- IMW/HW (%) (TMZ 6 mg/kg i.p.): 17.0 ± 3.20 %
- IMW (TMZ 9 mg/kg i.p.): 125 ± 15.2 mg
- IMW/HW (%) (TMZ 9 mg/kg i.p., hydrochloride): 16.0 ± 2.50 %
- IMW/HW (%) (TMZ 9 mg/kg i.p., listed as trimetazidine, hydrochloride): 16.0%
